Assay results published in paper PMC411064 (BMC Medicine, 2004).
Values joined by “and” are separate entries in the source; they are usually repeats but may differ in a detail not shown here. Identical values can stand only once. Like-named read-outs stand apart in the source and are kept apart here. Marks after values point to notes of the source that are not given here.

How the values were obtained:
MDCK II/wt cells = experiment: CPT directional transport across MDCK II/wt cell monolayers; type: in vitro ADME, dog; conditions: MDCK II/wt
[1] = as above; type: in vitro ADME, dog; conditions: dog, MDCK, pH 7.4
[2] = type: in vitro ADME; conditions: rat intestinal and liver s9 fractions and microsomes; data not shown
[3] = molecular target: human P-glycoprotein (PGP) (ABCB1) (Homo sapiens, UniProt P08183); experiment: CPT directional transport across MDCK II/PGP cell monolayers; type: in vitro ADME
[4] = cited from earlier work; for observed variability in the area under the curve: oral
[5] = molecular target: human multidrug resistance protein 2 (MRP2) (ABCC2) (Homo sapiens, UniProt Q92887); experiment: CPT directional transport across MDCK II/MRP2 cell monolayers; type: in vitro ADME
Caco-2 cells [6] = experiment: CPT directional transport across Caco-2 cell monolayers; type: in vitro ADME, human
Caco-2 cells [7] = experiment: Inhibition of CPT efflux; type: in vitro ADME, human; conditions: for decrease of CPT secretory permeability in the presence of inhibitor: BL to AP
[8] = read-out: Km value of etoposide; estimated in the authors' laboratory; cited from earlier work
[9] = test system: CC[C@@]1(O)C(=O)OCc2c1cc1n(c2=O)Cc2cc3ccccc3nc2-1; experiment: CPT directional transport across MDCK II/PGP cell monolayers; type: in vitro ADME, human; conditions: other: MDCK II/PGP, 37.0 °C
[10] = substrate: CC[C@@]1(O)C(=O)OCc2c1cc1n(c2=O)Cc2cc3ccccc3nc2-1; experiment: CPT directional transport across MDCK II/MRP2 cell monolayers; type: in vitro ADME, human; conditions: other: MDCK II/MRP2, 37.0 °C
[11] = orally administered, clinical evaluation

Sequence of human P-glycoprotein (PGP) (ABCB1) (P08183 whole entry): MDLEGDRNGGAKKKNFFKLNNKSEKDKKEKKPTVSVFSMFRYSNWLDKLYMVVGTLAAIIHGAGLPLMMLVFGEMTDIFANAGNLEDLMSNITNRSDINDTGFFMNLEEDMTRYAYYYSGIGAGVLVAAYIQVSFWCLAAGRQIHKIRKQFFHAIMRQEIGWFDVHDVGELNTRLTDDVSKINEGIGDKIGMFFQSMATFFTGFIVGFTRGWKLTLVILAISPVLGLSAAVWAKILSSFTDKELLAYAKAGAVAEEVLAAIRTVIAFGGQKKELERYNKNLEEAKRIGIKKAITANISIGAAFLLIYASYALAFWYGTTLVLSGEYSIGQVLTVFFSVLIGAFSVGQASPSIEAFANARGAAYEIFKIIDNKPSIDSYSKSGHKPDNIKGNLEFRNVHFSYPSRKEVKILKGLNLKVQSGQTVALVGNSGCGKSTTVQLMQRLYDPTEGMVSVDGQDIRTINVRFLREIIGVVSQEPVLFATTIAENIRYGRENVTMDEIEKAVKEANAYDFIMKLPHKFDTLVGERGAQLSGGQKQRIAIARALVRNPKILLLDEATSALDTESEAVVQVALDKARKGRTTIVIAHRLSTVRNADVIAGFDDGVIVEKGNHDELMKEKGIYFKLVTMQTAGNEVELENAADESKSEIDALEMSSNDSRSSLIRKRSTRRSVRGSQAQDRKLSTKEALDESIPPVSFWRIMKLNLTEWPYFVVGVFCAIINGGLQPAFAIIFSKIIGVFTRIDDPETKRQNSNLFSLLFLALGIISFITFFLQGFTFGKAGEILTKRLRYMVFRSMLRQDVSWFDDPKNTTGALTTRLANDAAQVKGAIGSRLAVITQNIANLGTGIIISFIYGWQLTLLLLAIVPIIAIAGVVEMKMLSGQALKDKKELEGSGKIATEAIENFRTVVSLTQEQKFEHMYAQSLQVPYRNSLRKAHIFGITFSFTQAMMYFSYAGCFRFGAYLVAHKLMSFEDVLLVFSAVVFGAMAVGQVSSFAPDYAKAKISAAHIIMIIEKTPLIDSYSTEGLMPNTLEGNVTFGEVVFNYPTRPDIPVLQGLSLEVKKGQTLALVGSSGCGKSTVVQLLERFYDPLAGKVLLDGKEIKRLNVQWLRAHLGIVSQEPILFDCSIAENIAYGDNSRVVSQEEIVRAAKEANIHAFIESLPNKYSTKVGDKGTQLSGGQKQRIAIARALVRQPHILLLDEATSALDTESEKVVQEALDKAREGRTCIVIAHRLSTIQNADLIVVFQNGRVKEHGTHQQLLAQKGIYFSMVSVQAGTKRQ

CC[C@@]1(O)C(=O)OCc2c1cc1n(c2=O)Cc2cc3ccccc3nc2-1 [CPT, 20-(S)-camptothecin]
Pc carrier permeability, absorptive (MDCK II/wt cells; AP to BL): 2.5 ± 0.7 cm/s × 10^5 | Pc carrier permeability, secretory (MDCK II/wt cells; BL to AP): 2.0 ± 0.2 cm/s × 10^5 | Km (MDCK II/wt cells; read-out: Km, absorptive (apical to bisolateral), AP to BL): 71.5 ± 9.7 µM | Km (MDCK II/wt cells; read-out: Km, secretory (bisolateral to apical), BL to AP): 81.3 ± 14.6 µM | efflux ratio at 105 min [1]: ~1 | degradation on incubation [2]: Minimal degradation | Pc carrier permeability, absorptive ([3]; AP to BL): 2.2 ± 0.5 cm/s × 10^5 | Pc carrier permeability, secretory ([3]; BL to AP): 4.1 ± 0.4 cm/s × 10^5 | variability in the area under the curve [4, 11]: 164% | variability in the bioavailability [4, 11]: 10 fold | Pc carrier permeability, absorptive ([5]; AP to BL): 2.5 ± 0.4 cm/s × 10^5 | Pc carrier permeability, secretory ([5]; BL to AP): 4.3 ± 0.7 cm/s × 10^5 | Pc carrier permeability, absorptive (Caco-2 cells [6]; AP to BL): 8.3 ± 0.3 cm/s × 10^5 | Pm passive permeability, absorptive (Caco-2 cells [6]; AP to BL, estimated as Peff at 4°C): 0.43 ± 0.05^a cm/s × 10^5 | Pc carrier permeability, secretory (Caco-2 cells [6]; BL to AP): 2.1 ± 0.1 cm/s × 10^5 | energy of activation (Ea) of efflux (Caco-2 cells [6]; BL to AP, Arrhenius plot, 4°C to 37°C): ~ 11.3 kcal/mole | Pm passive permeability, secretory (Caco-2 cells [6]; BL to AP, estimated as efflux Peff at 4°C): 0.35 ± 0.04^a cm/s × 10^5 | Pc for CPT secretory efflux (Caco-2 cells [6]; BL to AP, weighted nonlinear regression): 2.1 ± 0.1 × 10^-5 cm/s | Km (Caco-2 cells [6]; read-out: Km, secretory (bisolateral to apical), BL to AP, weighted nonlinear regression): 132 µM and 133 µM

CCc1c2c(nc3ccc(OC(=O)N4CCC(N5CCCCC5)CC4)cc13)-c1cc3c(c(=O)n1C2)COC(=O)[C@]3(O)CC [CPT-11, irinotecan]
observed variability in the area under the curve [4]: 50%

COc1cc2c(cc1OC)CN(CCc1ccc(NC(=O)c3cccc4c(=O)c5cccc(OC)c5[nH]c34)cc1)CC2 [GF120918]
decrease of CPT secretory permeability in the presence of inhibitor (Caco-2 cells [7]): 52.5% | reduction of CPT efflux (Caco-2 cells [7]; GF120918 0.4 μM, CPT 10 μM): 2.1 fold | effect of increasing inhibitor concentration on CPT efflux (Caco-2 cells [7]; GF120918 0.8–1.2 μM, data not shown): not further reduced

CC[C@@]1(O)C(=O)OCc2c1cc1n(c2=O)Cc2cc3c(CN(C)C)c(O)ccc3nc2-1 [TPT, topotecan]
observed variability in the area under the curve [4]: 41%

COc1cc([C@@H]2c3cc4c(cc3[C@@H](O[C@@H]3O[C@@H]5CO[C@@H](C)O[C@H]5[C@H](O)[C@H]3O)[C@H]3COC(=O)[C@H]23)OCO4)cc(OC)c1O [etoposide]
Km [8]: ~213 µM | decrease of CPT secretory permeability in the presence of inhibitor (Caco-2 cells [7]): 25.6% | reduction of CPT efflux permeability (Caco-2 cells [7]; etoposide 200 μM, CPT 10 μM): 1.3 fold

human P-glycoprotein (PGP) (ABCB1) (Homo sapiens)
Km ([9]; AP to BL): 69.7 ± 7.6 µM | Km ([9]; BL to AP): 36.3 ± 7.5 µM

B1: human multidrug resistance protein 2 (MRP2) (ABCC2) (Homo sapiens) (protein)
chain: MLEKFCNSTFWNSSFLDSPEADLPLCFEQTVLVWIPLGYLWLLAPWQLLHVYKSRTKRSSTTKLYLAKQVFVGFLLILAAIELALVLTEDSGQATVPAVRYTNPSLYLGTWLLVLLIQYSRQWCVQKNSWFLSLFWILSILCGTFQFQTLIRTLLQGDNSNLAYSCLFFISYGFQILILIFSAFSENNESSNNPSSIASFLSSITYSWYDSIILKGYKRPLTLEDVWEVDEEMKTKTLVSKFETHMKRELQKARRALQRRQEKSSQQNSGARLPGLNKNQSQSQDALVLEDVEKKKKKSGTKKDVPKSWLMKALFKTFYMVLLKSFLLKLVNDIFTFVSPQLLKLLISFASDRDTYLWIGYLCAILLFTAALIQSFCLQCYFQLCFKLGVKVRTAIMASVYKKALTLSNLARKEYTVGETVNLMSVDAQKLMDVTNFMHMLWSSVLQIVLSIFFLWRELGPSVLAGVGVMVLVIPINAILSTKSKTIQVKNMKNKDKRLKIMNEILSGIKILKYFAWEPSFRDQVQNLRKKELKNLLAFSQLQCVVIFVFQLTPVLVSVVTFSVYVLVDSNNILDAQKAFTSITLFNILRFPLSMLPMMISSMLQASVSTERLEKYLGGDDLDTSAIRHDCNFDKAMQFSEASFTWEHDSEATVRDVNLDIMAGQLVAVIGPVGSGKSSLISAMLGEMENVHGHITIKGTTAYVPQQSWIQNGTIKDNILFGTEFNEKRYQQVLEACALLPDLEMLPGGDLAEIGEKGINLSGGQKQRISLARATYQNLDIYLLDDPLSAVDAHVGKHIFNKVLGPNGLLKGKTRLLVTHSMHFLPQVDEIVVLGNGTIVEKGSYSALLAKKGEFAKNLKTFLRHTGPEEEATVHDGSEEEDDDYGLISSVEEIPEDAASITMRRENSFRRTLSRSSRSNGRHLKSLRNSLKTRNVNSLKEDEELVKGQKLIKKEFIETGKVKFSIYLEYLQAIGLFSIFFIILAFVMNSVAFIGSNLWLSAWTSDSKIFNSTDYPASQRDMRVGVYGALGLAQGIFVFIAHFWSAFGFVHASNILHKQLLNNILRAPMRFFDTTPTGRIVNRFAGDISTVDDTLPQSLRSWITCFLGIISTLVMICMATPVFTIIVIPLGIIYVSVQMFYVSTSRQLRRLDSVTRSPIYSHFSETVSGLPVIRAFEHQQRFLKHNEVRIDTNQKCVFSWITSNRWLAIRLELVGNLTVFFSALMMVIYRDTLSGDTVGFVLSNALNITQTLNWLVRMTSEIETNIVAVERITEYTKVENEAPWVTDKRPPPDWPSKGKIQFNNYQVRYRPELDLVLRGITCDIGSMEKIGVVGRTGAGKSSLTNCLFRILEAAGGQIIIDGVDIASIGLHDLREKLTIIPQDPILFSGSLRMNLDPFNNYSDEEIWKALELAHLKSFVASLQLGLSHEVTEAGGNLSIGQRQLLCLGRALLRKSKILVLDEATAAVDLETDNLIQTTIQNEFAHCTVITIAHRLHTIMDSDKVMVLDNGKIIECGSPEELLQIPGPFYFMAKEAGIENVNSTKF
Km ([10]; AP to BL): 101.2 ± 17.8 µM | Km ([10]; BL to AP): 65.8 ± 6.7 µM
